In article PMC4685510, “A Cell Biologist’s Field Guide to Aurora Kinase Inhibitors” (Frontiers in Oncology, 2015):

What was measured:
Experiment in all cases: biochemical
Assay type in all cases: biochemical
[1] = molecular target: T1, 363 human kinases (including Aurora A/B/C) (Homo sapiens, UniProt Q9UPZ9); conditions: LCK2/ICK; for remaining activity at 0.1 µM: 100 nM; for remaining activity at 0.1 µM / remaining activity at 0.5 µM: read-out: % Enzyme Activity (relative to DMSO controls)
T1 sequence (Q9UPZ9 1-632): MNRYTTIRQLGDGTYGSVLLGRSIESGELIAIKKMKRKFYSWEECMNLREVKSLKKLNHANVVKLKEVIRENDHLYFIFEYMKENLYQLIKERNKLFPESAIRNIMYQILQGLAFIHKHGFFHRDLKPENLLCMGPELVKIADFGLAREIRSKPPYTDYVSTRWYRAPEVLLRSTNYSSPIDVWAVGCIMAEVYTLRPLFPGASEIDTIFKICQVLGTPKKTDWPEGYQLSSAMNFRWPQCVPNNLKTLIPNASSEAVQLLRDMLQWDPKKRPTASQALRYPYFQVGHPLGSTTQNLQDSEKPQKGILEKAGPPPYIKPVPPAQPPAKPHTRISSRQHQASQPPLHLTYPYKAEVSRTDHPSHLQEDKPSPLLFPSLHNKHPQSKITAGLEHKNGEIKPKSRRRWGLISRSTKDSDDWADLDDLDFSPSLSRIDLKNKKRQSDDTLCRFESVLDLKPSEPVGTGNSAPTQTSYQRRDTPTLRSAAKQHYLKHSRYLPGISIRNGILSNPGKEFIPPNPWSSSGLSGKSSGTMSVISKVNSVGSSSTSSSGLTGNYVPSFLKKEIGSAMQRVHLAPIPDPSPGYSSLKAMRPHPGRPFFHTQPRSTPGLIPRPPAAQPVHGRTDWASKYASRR
Excerpt: (§1) However, the Aurora A/B selectivity ratios derived from our in vitro and in vivo data can be compared to prioritize inhibitors.

[2] = molecular target: T2, 363 human kinases (including Aurora A/B/C) (Homo sapiens, UniProt Q13873); conditions: BMPR2, [ATP] 15 µM; for remaining activity at 0.1 µM: 100 nM; for remaining activity at 0.1 µM / remaining activity at 0.5 µM: read-out: % Enzyme Activity (relative to DMSO controls)
T2 sequence (Q13873 27-1038): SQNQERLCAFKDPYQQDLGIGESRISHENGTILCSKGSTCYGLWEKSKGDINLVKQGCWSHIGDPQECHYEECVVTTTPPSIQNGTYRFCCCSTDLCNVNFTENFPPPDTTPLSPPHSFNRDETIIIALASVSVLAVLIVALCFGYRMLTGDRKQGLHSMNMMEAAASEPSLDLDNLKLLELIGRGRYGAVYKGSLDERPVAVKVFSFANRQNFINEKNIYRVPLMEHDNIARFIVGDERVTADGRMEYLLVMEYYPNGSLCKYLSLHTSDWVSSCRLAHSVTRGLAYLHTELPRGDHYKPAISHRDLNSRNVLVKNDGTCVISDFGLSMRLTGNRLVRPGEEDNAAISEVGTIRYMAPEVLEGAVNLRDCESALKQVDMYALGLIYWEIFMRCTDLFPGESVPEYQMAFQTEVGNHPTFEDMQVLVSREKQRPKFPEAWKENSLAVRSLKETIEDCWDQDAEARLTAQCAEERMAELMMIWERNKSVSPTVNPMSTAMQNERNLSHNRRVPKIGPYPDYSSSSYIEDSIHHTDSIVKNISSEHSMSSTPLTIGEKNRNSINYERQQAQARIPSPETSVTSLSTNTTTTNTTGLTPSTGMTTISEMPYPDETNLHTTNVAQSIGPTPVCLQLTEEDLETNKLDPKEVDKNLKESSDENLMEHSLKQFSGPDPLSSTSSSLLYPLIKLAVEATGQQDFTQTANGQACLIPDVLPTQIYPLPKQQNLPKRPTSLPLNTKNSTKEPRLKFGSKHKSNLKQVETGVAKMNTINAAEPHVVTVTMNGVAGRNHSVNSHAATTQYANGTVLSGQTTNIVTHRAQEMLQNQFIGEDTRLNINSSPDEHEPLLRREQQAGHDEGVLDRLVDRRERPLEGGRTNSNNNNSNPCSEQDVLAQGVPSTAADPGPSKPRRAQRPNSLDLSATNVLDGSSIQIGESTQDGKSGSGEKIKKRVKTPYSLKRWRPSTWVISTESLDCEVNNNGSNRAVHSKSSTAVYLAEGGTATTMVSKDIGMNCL
Excerpt: as §1

[3] = molecular target: 363 human kinases (including Aurora A/B/C) (Homo sapiens, UniProt O75582); conditions: MSK1/RPS6KA5; for remaining activity at 0.1 µM: 100 nM; for remaining activity at 0.1 µM / remaining activity at 0.5 µM: read-out: % Enzyme Activity (relative to DMSO controls)
Chain of 363 human kinases (including Aurora A/B/C) (Homo sapiens, UniProt O75582) (O75582 whole entry): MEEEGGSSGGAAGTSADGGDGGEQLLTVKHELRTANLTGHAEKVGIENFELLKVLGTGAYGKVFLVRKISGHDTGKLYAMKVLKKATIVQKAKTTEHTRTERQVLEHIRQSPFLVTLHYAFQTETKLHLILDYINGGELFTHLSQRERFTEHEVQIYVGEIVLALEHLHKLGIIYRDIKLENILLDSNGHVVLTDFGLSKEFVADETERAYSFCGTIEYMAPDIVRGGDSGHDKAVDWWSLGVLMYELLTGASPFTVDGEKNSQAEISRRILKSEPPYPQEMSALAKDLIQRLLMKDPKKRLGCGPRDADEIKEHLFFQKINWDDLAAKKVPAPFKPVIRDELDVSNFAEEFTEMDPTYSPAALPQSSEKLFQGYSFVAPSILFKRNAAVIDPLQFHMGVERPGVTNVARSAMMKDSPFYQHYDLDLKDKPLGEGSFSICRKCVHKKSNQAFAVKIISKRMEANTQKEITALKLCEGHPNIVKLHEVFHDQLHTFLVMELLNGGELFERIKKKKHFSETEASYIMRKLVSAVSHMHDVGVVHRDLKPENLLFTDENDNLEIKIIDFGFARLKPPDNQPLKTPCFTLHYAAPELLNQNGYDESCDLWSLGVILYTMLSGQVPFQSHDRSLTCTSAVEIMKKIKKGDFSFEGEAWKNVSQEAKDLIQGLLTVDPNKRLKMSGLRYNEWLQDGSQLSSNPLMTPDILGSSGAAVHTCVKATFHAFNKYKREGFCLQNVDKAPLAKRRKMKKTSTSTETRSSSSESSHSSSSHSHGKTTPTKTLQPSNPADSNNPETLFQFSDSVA
Excerpt: as §1

[4] = molecular target: 363 human kinases (including Aurora A/B/C) (Homo sapiens, UniProt Q9BXA6); conditions: SSTK/TSSK6; for remaining activity at 0.1 µM: 100 nM; for remaining activity at 0.1 µM / remaining activity at 0.5 µM: read-out: % Enzyme Activity (relative to DMSO controls)
Chain of 363 human kinases (including Aurora A/B/C) (Homo sapiens, UniProt Q9BXA6) (Q9BXA6 whole entry): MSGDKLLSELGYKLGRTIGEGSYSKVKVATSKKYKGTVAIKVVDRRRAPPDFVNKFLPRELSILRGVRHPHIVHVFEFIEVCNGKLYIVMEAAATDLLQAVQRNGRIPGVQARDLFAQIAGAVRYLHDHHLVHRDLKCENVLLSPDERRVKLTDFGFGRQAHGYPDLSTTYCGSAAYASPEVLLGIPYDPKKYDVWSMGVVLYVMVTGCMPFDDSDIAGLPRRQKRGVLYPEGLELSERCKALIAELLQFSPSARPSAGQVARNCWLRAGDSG
Excerpt: as §1

[5] = molecular target: 363 human kinases (including Aurora A/B/C) (Homo sapiens, UniProt Q05655); conditions: PKCd; for remaining activity at 0.1 µM: 100 nM; for remaining activity at 0.1 µM / remaining activity at 0.5 µM: read-out: % Enzyme Activity (relative to DMSO controls)
Chain of 363 human kinases (including Aurora A/B/C) (Homo sapiens, UniProt Q05655) (Q05655 whole entry): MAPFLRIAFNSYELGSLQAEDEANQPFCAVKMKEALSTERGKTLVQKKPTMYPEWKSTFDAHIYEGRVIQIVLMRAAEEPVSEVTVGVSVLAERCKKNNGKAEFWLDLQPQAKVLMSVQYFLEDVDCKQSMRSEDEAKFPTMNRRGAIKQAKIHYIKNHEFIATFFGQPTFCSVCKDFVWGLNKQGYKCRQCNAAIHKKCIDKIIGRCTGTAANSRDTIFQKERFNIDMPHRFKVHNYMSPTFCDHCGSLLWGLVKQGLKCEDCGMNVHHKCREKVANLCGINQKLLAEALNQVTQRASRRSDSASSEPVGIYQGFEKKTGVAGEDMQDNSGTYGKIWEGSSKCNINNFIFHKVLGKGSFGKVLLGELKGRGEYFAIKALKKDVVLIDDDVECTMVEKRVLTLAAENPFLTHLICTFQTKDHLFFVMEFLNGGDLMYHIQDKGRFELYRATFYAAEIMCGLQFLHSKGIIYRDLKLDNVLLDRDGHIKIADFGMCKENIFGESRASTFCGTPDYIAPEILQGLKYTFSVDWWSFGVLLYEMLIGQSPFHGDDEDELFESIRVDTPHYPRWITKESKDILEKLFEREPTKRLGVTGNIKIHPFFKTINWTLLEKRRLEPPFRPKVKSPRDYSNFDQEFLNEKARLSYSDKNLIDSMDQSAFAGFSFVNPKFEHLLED
Excerpt: as §1

[6] = molecular target: 363 human kinases (including Aurora A/B/C) (Homo sapiens, UniProt P68400); conditions: CK2a, [ATP] 20 µM, read-out: % Enzyme Activity (relative to DMSO controls); for remaining activity at 0.1 µM: 100 nM; for remaining activity at 0.5 µM: 500 nM
Chain of 363 human kinases (including Aurora A/B/C) (Homo sapiens, UniProt P68400) (P68400 whole entry): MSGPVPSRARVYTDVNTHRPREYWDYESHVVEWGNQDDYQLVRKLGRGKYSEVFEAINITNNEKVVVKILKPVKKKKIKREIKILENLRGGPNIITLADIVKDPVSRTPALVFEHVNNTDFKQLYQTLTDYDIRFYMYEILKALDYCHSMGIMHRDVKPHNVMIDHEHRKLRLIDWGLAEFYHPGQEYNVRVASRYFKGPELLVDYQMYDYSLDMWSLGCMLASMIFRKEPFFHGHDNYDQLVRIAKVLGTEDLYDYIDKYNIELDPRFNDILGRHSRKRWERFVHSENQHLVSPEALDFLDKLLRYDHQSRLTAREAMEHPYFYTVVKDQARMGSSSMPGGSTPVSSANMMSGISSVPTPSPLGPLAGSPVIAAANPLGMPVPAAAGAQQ
Excerpt: as §1

[7] = molecular target: T3, 363 human kinases (including Aurora A/B/C) (Homo sapiens, UniProt P43403); conditions: ZAP70; for remaining activity at 0.1 µM: 100 nM; for remaining activity at 0.1 µM / remaining activity at 0.5 µM: read-out: % Enzyme Activity (relative to DMSO controls)
T3 sequence (P43403 1-619): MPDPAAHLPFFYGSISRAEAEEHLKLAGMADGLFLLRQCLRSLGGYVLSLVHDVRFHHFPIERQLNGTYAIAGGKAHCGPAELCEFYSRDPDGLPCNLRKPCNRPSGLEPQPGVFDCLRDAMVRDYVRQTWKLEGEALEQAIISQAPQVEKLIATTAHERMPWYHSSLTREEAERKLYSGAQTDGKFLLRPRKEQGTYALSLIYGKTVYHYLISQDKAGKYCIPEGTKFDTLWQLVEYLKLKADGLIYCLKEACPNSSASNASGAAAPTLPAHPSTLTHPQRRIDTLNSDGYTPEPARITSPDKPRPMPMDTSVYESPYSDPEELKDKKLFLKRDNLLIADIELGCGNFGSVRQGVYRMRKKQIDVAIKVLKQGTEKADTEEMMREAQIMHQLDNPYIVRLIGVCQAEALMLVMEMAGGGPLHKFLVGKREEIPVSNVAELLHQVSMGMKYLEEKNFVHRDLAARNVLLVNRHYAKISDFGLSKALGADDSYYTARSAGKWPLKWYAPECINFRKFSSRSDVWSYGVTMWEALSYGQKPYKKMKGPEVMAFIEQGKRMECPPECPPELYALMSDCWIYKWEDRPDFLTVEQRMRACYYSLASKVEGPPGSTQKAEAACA
Excerpt: as §1

Row | SMILES | remaining activity at 0.1 µM [1] [%] | remaining activity at 0.1 µM [2] [%] | remaining activity at 0.1 µM [3] [%] | remaining activity at 0.1 µM [4] [%] | remaining activity at 0.1 µM [5] [%] | remaining activity at 0.1 µM [6] [%] | remaining activity at 0.1 µM [7] [%] | remaining activity at 0.5 µM ([1]; 500 nM) [%] | remaining activity at 0.5 µM ([2]; 500 nM) [%] | remaining activity at 0.5 µM ([3]; 500 nM) [%] | remaining activity at 0.5 µM ([4]; 500 nM) [%] | remaining activity at 0.5 µM ([5]; 500 nM) [%] | remaining activity at 0.5 µM [6] [%] | remaining activity at 0.5 µM ([7]; 500 nM) [%] | % Enzyme Activity (relative to DMSO controls) ([1]; 500 nM) [%] | % Enzyme Activity (relative to DMSO controls) ([2]; 500 nM) [%] | % Enzyme Activity (relative to DMSO controls) ([3]; 500 nM) [%] | % Enzyme Activity (relative to DMSO controls) ([4]; 500 nM) [%] | % Enzyme Activity (relative to DMSO controls) ([5]; 500 nM) [%] | % Enzyme Activity (relative to DMSO controls) ([7]; 500 nM) [%]
1 | CCn1cc(-c2ccnc3[nH]c(-c4cccc(CN(C)C)c4)cc23)c(-c2ccc(NC(=O)N(C)C)cc2)n1 [GSK1070916] | 97.6 | 147 | 101 | 100 | 201 | 99.6 | 105 |  |  |  |  |  |  |  |  |  |  |  |  | 
2 | O=C(O)[C@]1(Cc2cccc(Nc3nccs3)n2)CC[C@@H](Oc2cccc(Cl)c2F)CC1 [MK-5108] | 99 | 46.4 | 99.7 | 95.1 | 97.8 | 104 | 103 | 92.3 | 37 | 86.8 | 104 | 201 | 105 | 113 |  |  |  |  |  | 
3 | O=C(c1cccc(Cl)c1F)N1CCN(Cc2cccc(Nc3nccs3)n2)CC1 [MK-8745] |  |  |  |  |  |  |  | 93 | 106 | 96.3 | 94.5 | 141 | 91.9 | 109 | 91.96 | 98.44 | 93.34 | 91.73 | 130.26 | 97.69
